# Data as given in patent US20260184702A1, “SYNTHESIS, PHARMACOLOGY AND USE OF NEW WATER-SOLUBLE AND SELECTIVE FMS-LIKE TYROSINE KINASE3 (FLT3) INHIBITORS” (Universität Regensburg, priority 2022, published 2026).
# How the values were obtained:
# [1] = tested on: subcutaneous MV4-11 CDX model; test: In vivo efficacy study in subcutaneous MV4-11 CDX model in NOD/SCID mice; conditions: 50 mg/kg po daily 5 days
# [2] = tested on: subcutaneous MV4-11 CDX model; conditions: female, NOD/SCID, mouse, in vivo, 5 days
# [3] = tested on: MONO-MAC-1 (acute monocytic leukemia); conditions: Sellmer et al. 2020; cited from earlier work
# [4] = Solubility test by UV-Vis spectroscopy of saturated solutions; assay type: physicochemical; conditions: for Solubility Ethanol [g/L] / Solubility Water [g/L]: saturated solution; for Solubility Water [g/L]: ultrapure water
# Summary of the method: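 Solubility was measured by UV-Vis spectroscopy on an Agilent Cary 60 over 800-200 nm, using a scan rate of 300.0 nm/min, a 0.50 nm data interval, 0.10 s averaging time and a 10 mm cuvette. Filtered saturated supernatants were diluted into water:ethanol, read at the long-wave absorbance maximum against a calibration curve of at least 6 concentrations, in triplicate.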
# [5] = tested on: MOLM-13 (acute myeloid leukemia); conditions: Sellmer et al. 2020; cited from earlier work
# [6] = tested on: EOL-1 (acute myeloid eosinophilic leukemia); conditions: Sellmer et al. 2020; cited from earlier work
# [7] = tested on: MONO-MAC-6 (acute monocytic leukemia); conditions: Sellmer et al. 2020; cited from earlier work
compound,measurement,setting,value
"CC(C)(C)c1cc(NC(=O)Nc2ccc(-c3cn4c(n3)sc3cc(OCCN5CCOCC5)ccc34)cc2)no1 [Quizartinib, reference compound]",first death(s) (day of study),[1],600000 s
same,"number of living subjects, day of study 5",[1]; 5 mice,5
same,"number of living subjects, day of study 6",[1]; 5 mice,5
same,"number of living subjects, day of study 8",[1]; 5 mice,3
same,"number of living subjects, day of study 13",[1]; 5 mice,3
same,"number of living subjects, day of study 26",[1]; 5 mice,3
same,"number of living subjects, day of study 36",[1]; 5 mice,3
same,study day after which mice had to be sacrificed,[2],6 days
same,IC50,[3],0.006 µM
same,solubility,"[4]; DMSO, organic solvent or mixture, solvent DMSO, read-out: Solubility DMSO",33.2 mg/mL
same,Solubility Ethanol [g/L],[4],no or at most very poor solubility
same,Solubility Ethanol [g/L],[4]; listed as AC220,Practical
same,Solubility Water [g/L],[4],no or at most very poor solubility
same,Solubility Water [g/L],[4]; listed as AC220,Practical
same,IC50,[5],0.007 µM
same,IC50,[6],0.0001 µM
same,IC50,[7],0.004 µM
